“And” between values parts separate entries of the source, which are not always exact repeats. Equal values may be shown once. Toxic doses and inconclusive results are not listed. How the source made its calls: active means survival T/C of 150% or more; inactive means T/C below 125% in these data.
Test system: P388 leukemia ip, CD2F1 mice, survival T/C
Test: NCI In Vivo Anticancer Drug Screen. Data for tumor model P388 Leukemia (intraperitoneal) in CD2F1 (CDF1) mice
Details: endpoint: median survival time, higher = longer survival
Procedure, shortened: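 Mice carrying the transplanted tumor received test compound or vehicle. Survival was recorded in each group, and the value is the treated-group measurement divided by that of the vehicle-treated control group.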

[1] = dose: 50.0 mg/kg/injection, schedule: Q01DX005 (ip), vehicle: saline with Tween-80
[2] = dose: 100.0 mg/kg/injection, schedule: Q01DX005 (ip), vehicle: saline with Tween-80
[3] = dose: 200.0 mg/kg/injection, schedule: Q01DX005 (ip), vehicle: saline with Tween-80
[4] = dose: 50.0 mg/kg/injection, schedule: Q01DX009 (ip), vehicle: Klucel (hydroxypropylcellulose) (HPC)
[5] = dose: 60.0 mg/kg/injection, schedule: Q01DX005 (ip), vehicle: saline with Tween-80
[6] = dose: 120.0 mg/kg/injection, schedule: Q01DX005 (ip), vehicle: saline with Tween-80
[7] = dose: 240.0 mg/kg/injection, schedule: Q01DX005 (ip), vehicle: saline with Tween-80

Measured: T/C

CC(C)(C)c1cc2c3c(c1)Oc1cc(C(C)(C)C)cc4c1C3(O)c1c(cc(C(C)(C)C)cc1O4)O2
inactive: dose: 1.56 mg/kg/injection, schedule: Q01DX005 (ip), vehicle: Klucel (hydroxypropylcellulose) (HPC) 107 % of control | dose: 3.12 mg/kg/injection, schedule: Q01DX005 (ip), vehicle: Klucel (hydroxypropylcellulose) (HPC) 104 % of control and 108 % of control | dose: 6.25 mg/kg/injection, schedule: Q01DX005 (ip), vehicle: Klucel (hydroxypropylcellulose) (HPC) 101 % of control and 110 % of control and 118 % of control | dose: 12.5 mg/kg/injection, schedule: Q01DX005 (ip), vehicle: Klucel (hydroxypropylcellulose) (HPC) 107 % of control and 111 % of control and 120 % of control | dose: 25.0 mg/kg/injection, schedule: Q01DX005 (ip), vehicle: Klucel (hydroxypropylcellulose) (HPC) 102 % of control

COc1cc(OC)c(OC)cc1/C=N/NC(=O)N/N=C/c1cc(OC)c(OC)cc1OC
inactive: dose: 12.5 mg/kg/injection, schedule: Q01DX009 (ip), vehicle: distilled water + Tween-80 96 % of control | dose: 25.0 mg/kg/injection, schedule: Q01DX009 (ip), vehicle: distilled water + Tween-80 96 % of control | dose: 50.0 mg/kg/injection, schedule: Q01DX009 (ip), vehicle: distilled water + Tween-80 108 % of control | dose: 100.0 mg/kg/injection, schedule: Q01DX009 (ip), vehicle: distilled water + Tween-80 99 % of control | dose: 200.0 mg/kg/injection, schedule: Q01DX009 (ip), vehicle: distilled water + Tween-80 94 % of control | dose: 400.0 mg/kg/injection, schedule: Q01DX009 (ip), vehicle: distilled water + Tween-80 86 % of control

NC(Cc1ccccc1)C(=O)CCl (centres undefined)
inactive: dose: 12.5 mg/kg/injection, schedule: Q01DX001 (ip), vehicle: saline 104 % of control | dose: 25.0 mg/kg/injection, schedule: Q01DX001 (ip), vehicle: saline 100 % of control

COc1ccc(C(=O)CC(=O)C(=O)Nc2ccc(Cl)cc2)cc1
inactive: [1] 103 % of control | [2] 101 % of control | [3] 109 % of control

COc1cc2c(/C=N/NC(N)=S)c(Cl)[nH]c2cc1C
inactive: dose: 25.0 mg/kg/injection, schedule: Q04DX003 (ip), vehicle: saline with Tween-80 105 % of control | dose: 50.0 mg/kg/injection, schedule: Q04DX003 (ip), vehicle: saline with Tween-80 107 % of control | dose: 100.0 mg/kg/injection, schedule: Q01DX001 (ip), vehicle: saline with Tween-80 102 % of control | dose: 100.0 mg/kg/injection, schedule: Q04DX003 (ip), vehicle: saline with Tween-80 90 % of control | dose: 200.0 mg/kg/injection, schedule: Q01DX001 (ip), vehicle: saline with Tween-80 100 % of control | dose: 200.0 mg/kg/injection, schedule: Q04DX003 (ip), vehicle: saline with Tween-80 98 % of control | dose: 400.0 mg/kg/injection, schedule: Q01DX001 (ip), vehicle: saline with Tween-80 90 % of control

C=C1CCN(c2ccc(N3CCC(=C)C3=O)cc2)C1=O
inactive: dose: 3.12 mg/kg/injection, schedule: Q01DX009 (ip), vehicle: saline + alcohol 88 % of control | dose: 6.25 mg/kg/injection, schedule: Q01DX009 (ip), vehicle: saline + alcohol 100 % of control | dose: 25.0 mg/kg/injection, schedule: Q01DX009 (ip), vehicle: saline + alcohol 88 % of control | dose: 50.0 mg/kg/injection, schedule: Q01DX009 (ip), vehicle: saline + alcohol 88 % of control

COc1nc(Nc2ccccc2OC)nc(OC)n1
inactive: [4] 101 % of control | dose: 100.0 mg/kg/injection, schedule: Q01DX009 (ip), vehicle: Klucel (hydroxypropylcellulose) (HPC) 99 % of control | dose: 200.0 mg/kg/injection, schedule: Q01DX009 (ip), vehicle: Klucel (hydroxypropylcellulose) (HPC) 100 % of control

CCN(CC)CCSC1CC2CC(C1C)C2(C)C (centres undefined)
inactive: dose: 50.0 mg/kg/injection, schedule: Q01DX005 (ip), vehicle: Klucel (hydroxypropylcellulose) (HPC) 99 % of control | dose: 100.0 mg/kg/injection, schedule: Q01DX005 (ip), vehicle: Klucel (hydroxypropylcellulose) (HPC) 109 % of control | dose: 200.0 mg/kg/injection, schedule: Q01DX005 (ip), vehicle: Klucel (hydroxypropylcellulose) (HPC) 104 % of control

CN(C)CC(CN(C)C)C(=O)c1ccc(Oc2ccccc2)cc1
inactive: dose: 7.5 mg/kg/injection, schedule: Q01DX005 (ip), vehicle: saline 123 % of control | dose: 15.0 mg/kg/injection, schedule: Q01DX005 (ip), vehicle: saline 120 % of control

ClC(=Nc1ccccc1)c1ccccn1
inactive: dose: 12.5 mg/kg/injection, schedule: Q01DX009 (ip), vehicle: Klucel (hydroxypropylcellulose) (HPC) 101 % of control | dose: 25.0 mg/kg/injection, schedule: Q01DX009 (ip), vehicle: Klucel (hydroxypropylcellulose) (HPC) 101 % of control | [4] 96 % of control

COc1cc([N+](=O)[O-])ccc1C(=O)Nc1c2ccccc2nc2ccccc12
inactive: dose: 25.0 mg/kg/injection, schedule: Q01DX005 (ip), vehicle: saline with Tween-80 95 % of control | [1] 107 % of control | [2] 92 % of control | [3] 92 % of control

Fc1ccc(NC(=S)SCc2ccc3c(c2)OCO3)cc1
inactive: dose: 50.0 mg/kg/injection, schedule: Q01DX009 (ip), vehicle: suspension in saline 101 % of control | dose: 100.0 mg/kg/injection, schedule: Q01DX009 (ip), vehicle: suspension in saline 101 % of control | dose: 200.0 mg/kg/injection, schedule: Q01DX009 (ip), vehicle: suspension in saline 116 % of control

CSC1=NSC(c2ccccc2)=C(c2ccccc2)S1
inactive: [5] 111 % of control | [6] 122 % of control | [7] 119 % of control

O=c1c2ccc(S(=O)(=O)c3ccc4c(=O)n5c6ccccc6nc5c5cccc3c45)c3cccc(c32)c2nc3ccccc3n12
inactive: dose: 60.0 mg/kg/injection, schedule: Q01DX005 (ip), vehicle: Klucel (hydroxypropylcellulose) (HPC) 86 % of control | dose: 120.0 mg/kg/injection, schedule: Q01DX005 (ip), vehicle: Klucel (hydroxypropylcellulose) (HPC) 88 % of control | dose: 240.0 mg/kg/injection, schedule: Q01DX005 (ip), vehicle: Klucel (hydroxypropylcellulose) (HPC) 99 % of control

CC1N(N2C(=O)CS(=O)(=O)C2C)C(=O)CS1(=O)=O (centres undefined)
inactive: [1] 90 % of control | [2] 95 % of control | [3] 89 % of control

COc1ccc2c(c1)N(C(=O)CNC(C)(C)C)c1ccccc1S2
inactive: dose: 100.0 mg/kg/injection, schedule: Q04DX002 (ip), vehicle: saline 117 % of control | dose: 200.0 mg/kg/injection, schedule: Q04DX002 (ip), vehicle: saline 99 % of control

O=C(NCCNC(=O)Nc1ccccc1S(=O)(=O)F)Nc1ccccc1S(=O)(=O)F
inactive: dose: 50.0 mg/kg/injection, schedule: Q01DX009 (ip), vehicle: saline with Tween-80 96 % of control | dose: 100.0 mg/kg/injection, schedule: Q01DX009 (ip), vehicle: saline with Tween-80 97 % of control | dose: 200.0 mg/kg/injection, schedule: Q01DX009 (ip), vehicle: saline with Tween-80 93 % of control

C[C@@H]1CC[C@]2(C)CC[C@]3(C)C(=CC[C@@H]4[C@@]5(C)CC[C@H](O)C(C)(C)[C@@H]5CC[C@]43C)[C@@H]2[C@H]1C(=O)O
inactive: dose: 0.5 mg/kg/injection, schedule: Q01DX005 (ip), vehicle: DMSO 99 % of control | dose: 1.0 mg/kg/injection, schedule: Q01DX005 (ip), vehicle: DMSO 101 % of control | dose: 2.0 mg/kg/injection, schedule: Q01DX005 (ip), vehicle: DMSO 100 % of control | dose: 4.0 mg/kg/injection, schedule: Q01DX005 (ip), vehicle: DMSO 100 % of control and 108 % of control | dose: 8.0 mg/kg/injection, schedule: Q01DX005 (ip), vehicle: DMSO 98 % of control

CC(CSc1ccccc1)C(Sc1ccccc1)Sc1ccccc1 (centres undefined)
inactive: dose: 50.0 mg/kg/injection, schedule: Q01DX009 (ip), vehicle: saline 102 % of control | dose: 100.0 mg/kg/injection, schedule: Q01DX009 (ip), vehicle: saline 98 % of control | dose: 200.0 mg/kg/injection, schedule: Q01DX009 (ip), vehicle: saline 106 % of control

O=C(Nc1cc(-c2ccccc2)nn1-c1ccccc1)c1ccccc1F
inactive: [5] 103 % of control | [6] 103 % of control | [7] 111 % of control

CC(CCc1ccc2c(c1)c(=N)c1ccc(N)cc1n2O)CC(C)(C)C (centres undefined)
inactive: dose: 1.56 mg/kg/injection, schedule: Q04DX002 (ip), vehicle: distilled water + Tween-80 102 % of control and 96 % of control | dose: 3.12 mg/kg/injection, schedule: Q04DX002 (ip), vehicle: distilled water + Tween-80 106 % of control and 94 % of control | dose: 6.25 mg/kg/injection, schedule: Q04DX002 (ip), vehicle: distilled water + Tween-80 100 % of control and 120 % of control | dose: 12.5 mg/kg/injection, schedule: Q04DX002 (ip), vehicle: distilled water + Tween-80 102 % of control and 98 % of control (2×)

Source: PubChem BioAssay AID330 (DTP/NCI, 2004)
